In PubChem BioAssay (NCI):
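Growth conditions: 96-well plates. Treatment: test compound, 48 hours, 5 concentrations. Analysis: linear interpolation between bracketing concentrations; unreached endpoints set to highest concentration. TGI: total growth inhibition.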

Assays:
Assay in all cases: NCI anticancer screen, dose series, 48 h
MOLT-4 leukemia = tested on: MOLT-4 leukemia
OVCAR-5 ovarian = tested on: OVCAR-5 ovarian
MDA-N = tested on: MDA-N
MDA-MB-231 breast = tested on: MDA-MB-231 breast
PC-3 prostate = tested on: PC-3 prostate
NCI-H23 lung = tested on: NCI-H23 lung
OVCAR-4 ovarian = tested on: OVCAR-4 ovarian
A549 NSCLC = tested on: A549 NSCLC
IGROV1 ovarian = tested on: IGROV1 ovarian
CCRF-CEM leukemia = tested on: CCRF-CEM leukemia
SF-268 CNS = tested on: SF-268 CNS
HL-60(TB) leukemia = tested on: HL-60(TB) leukemia
COLO 205 colon = tested on: COLO 205 colon
SK-MEL-2 melanoma = tested on: SK-MEL-2 melanoma
786-0 renal = tested on: 786-0 renal
HCT-15 colon = tested on: HCT-15 colon
EKVX NSCLC = tested on: EKVX NSCLC
NCI-H226 lung = tested on: NCI-H226 lung
RPMI-8226 leukemia = tested on: RPMI-8226 leukemia
CAKI-1 renal = tested on: CAKI-1 renal
UACC-257 melanoma = tested on: UACC-257 melanoma
KM12 colon = tested on: KM12 colon
HOP-62 NSCLC = tested on: HOP-62 NSCLC
MCF7 breast = tested on: MCF7 breast
HCT-116 colon = tested on: HCT-116 colon
LOX IMVI melanoma = tested on: LOX IMVI melanoma
ACHN renal = tested on: ACHN renal
SN12C renal = tested on: SN12C renal
SR leukemia = tested on: SR leukemia
M14 melanoma = tested on: M14 melanoma
MALME-3M melanoma = tested on: MALME-3M melanoma
BT-549 breast = tested on: BT-549 breast
MDA-MB-435 = tested on: MDA-MB-435
SK-MEL-28 melanoma = tested on: SK-MEL-28 melanoma
DU-145 prostate = tested on: DU-145 prostate
SK-OV-3 ovarian = tested on: SK-OV-3 ovarian
NCI/ADR-RES ovarian = tested on: NCI/ADR-RES ovarian
OVCAR-8 ovarian = tested on: OVCAR-8 ovarian
U251 CNS = tested on: U251 CNS
UACC-62 melanoma = tested on: UACC-62 melanoma
A498 renal = tested on: A498 renal
HCC-2998 colon = tested on: HCC-2998 colon
NCI-H522 lung = tested on: NCI-H522 lung
HT29 colon = tested on: HT29 colon
T-47D breast = tested on: T-47D breast
SK-MEL-5 melanoma = tested on: SK-MEL-5 melanoma
HOP-92 NSCLC = tested on: HOP-92 NSCLC
NCI-H460 lung = tested on: NCI-H460 lung
SNB-19 CNS = tested on: SNB-19 CNS
SNB-75 CNS = tested on: SNB-75 CNS
K-562 leukemia = tested on: K-562 leukemia
OVCAR-3 ovarian = tested on: OVCAR-3 ovarian
SW-620 colon = tested on: SW-620 colon
HS 578T breast = tested on: HS 578T breast
RXF 393 renal = tested on: RXF 393 renal

## C=CCc1cccc2cc(C(=O)NC3CCCCC3)c(=N)oc12
MOLT-4 leukemia
  TGI: > 100 µM
OVCAR-5 ovarian
  TGI: 39 µM
MDA-N
  TGI: 47.3 µM
MDA-MB-231 breast
  TGI: 35.9 µM
PC-3 prostate
  TGI: 31.2 µM
NCI-H23 lung
  TGI: 51.8 µM
OVCAR-4 ovarian
  TGI: 63.1 µM
A549 NSCLC
  TGI: > 100 µM
IGROV1 ovarian
  TGI: > 100 µM
CCRF-CEM leukemia
  TGI: > 100 µM
SF-268 CNS
  TGI: 41.2 µM
HL-60(TB) leukemia
  TGI: > 100 µM
COLO 205 colon
  TGI: 33.5 µM
SK-MEL-2 melanoma
  TGI: 16.1 µM
786-0 renal
  TGI: 31.2 µM
HCT-15 colon
  TGI: 34.9 µM
EKVX NSCLC
  TGI: > 100 µM
NCI-H226 lung
  TGI: 44.9 µM
RPMI-8226 leukemia
  TGI: > 100 µM
CAKI-1 renal
  TGI: 37.9 µM
UACC-257 melanoma
  TGI: 78 µM
KM12 colon
  TGI: 33 µM
HOP-62 NSCLC
  TGI: 37.7 µM
MCF7 breast
  TGI: > 100 µM
HCT-116 colon
  TGI: 28.6 µM
LOX IMVI melanoma
  TGI: 34 µM
ACHN renal
  TGI: 35 µM
SN12C renal
  TGI: 29.8 µM
SR leukemia
  TGI: > 100 µM
M14 melanoma
  TGI: 39.1 µM
MALME-3M melanoma
  TGI: > 100 µM
BT-549 breast
  TGI: > 100 µM
MDA-MB-435
  TGI: 77.5 µM
SK-MEL-28 melanoma
  TGI: 66.2 µM
DU-145 prostate
  TGI: 52.5 µM
SK-OV-3 ovarian
  TGI: > 100 µM
NCI/ADR-RES ovarian
  TGI: > 100 µM
OVCAR-8 ovarian
  TGI: 57.8 µM
U251 CNS
  TGI: > 100 µM
UACC-62 melanoma
  TGI: 41.2 µM
A498 renal
  TGI: 52 µM
HCC-2998 colon
  TGI: 31.2 µM
NCI-H522 lung
  TGI: > 100 µM
HT29 colon
  TGI: 57.7 µM
T-47D breast
  TGI: 52.8 µM
SK-MEL-5 melanoma
  TGI: 27.4 µM
HOP-92 NSCLC
  TGI: > 100 µM
NCI-H460 lung
  TGI: 35.9 µM
SNB-19 CNS
  TGI: 72.8 µM
SNB-75 CNS
  TGI: 35 µM
K-562 leukemia
  TGI: > 100 µM
OVCAR-3 ovarian
  TGI: 28.3 µM
SW-620 colon
  TGI: > 100 µM
HS 578T breast
  TGI: 31.4 µM
RXF 393 renal
  TGI: > 100 µM
